{"source": "paper PMC10657444", "about": "“Design and evaluation of tadpole-like conformational antimicrobial peptides” (Communications Biology, 2023)", "test_system": "K. pneumoniae ATCC 700603", "assay": "microbe, parasite or virus in culture", "format": "cell-based, Klebsiella pneumoniae", "conditions": "for MIC: Klebsiella pneumoniae", "method": "MRSA USA 300 and K. pneumoniae ATCC 700603 were employed to assess the development of resistance. From inoculated microtiter panels, an aliquot of the well with the highest concentration permitting growth was taken and back diluted in fresh media to a turbidity of a 0.5 McFarland standard. This suspension was then further diluted and used to inoculate a fresh MIC panel resulting in a final concentration of 5 × 10^6 CFU/mL. Panels were incubated according to CLSI guidelines (M07, 11th edition, 2018), MICs were recorded and the next inoculum was prepared from the well containing the highest concentration of drug that allowed growth in identical fashion as described above.", "note": "Like-named read-outs stand apart in the source and are kept apart here.", "data": [{"molecule": "O=C(O)c1cn(C2CC2)c2cc(N3CCNCC3)c(F)cc2c1=O", "note": "[ciprofloxacin, reference compound]", "values": [{"measurement": "MIC", "setting": "ATCC700603, 0 h, read-out: Concentration (MIC in drug resistance assay), K. pneumoniae ATCC 700603, day 0", "value": 0.25, "unit": "µg/mL"}, {"measurement": "MIC", "setting": "ATCC700603, 24 h, read-out: Concentration (MIC in drug resistance assay), K. pneumoniae ATCC 700603, day 1", "value": 0.5, "unit": "µg/mL"}, {"measurement": "MIC", "setting": "ATCC700603, 48 h, read-out: Concentration (MIC in drug resistance assay), K. pneumoniae ATCC 700603, day 2", "value": 1, "unit": "µg/mL"}, {"measurement": "MIC", "setting": "ATCC700603, 72 h, read-out: Concentration (MIC in drug resistance assay), K. pneumoniae ATCC 700603, day 3", "value": 0.5, "unit": "µg/mL"}, {"measurement": "MIC", "setting": "ATCC700603, 96 h, read-out: Concentration (MIC in drug resistance assay), K. pneumoniae ATCC 700603, day 4", "value": 1, "unit": "µg/mL"}, {"measurement": "MIC", "setting": "ATCC700603, 120 h, read-out: Concentration (MIC in drug resistance assay), K. pneumoniae ATCC 700603, day 5", "value": 0.5, "unit": "µg/mL"}, {"measurement": "MIC", "setting": "ATCC700603, 144 h, read-out: Concentration (MIC in drug resistance assay), K. pneumoniae ATCC 700603, day 6", "value": 1, "unit": "µg/mL"}, {"measurement": "MIC", "setting": "ATCC700603, 168 h, read-out: Concentration (MIC in drug resistance assay), K. pneumoniae ATCC 700603, day 7", "value": 1, "unit": "µg/mL"}, {"measurement": "MIC", "setting": "ATCC700603, 192 h, read-out: Concentration (MIC in drug resistance assay), K. pneumoniae ATCC 700603, day 8", "value": 2, "unit": "µg/mL"}, {"measurement": "MIC", "setting": "ATCC700603, 216 h, read-out: Concentration (MIC in drug resistance assay), K. pneumoniae ATCC 700603, day 9", "value": 1, "unit": "µg/mL"}, {"measurement": "MIC", "setting": "ATCC700603, 240 h, read-out: Concentration (MIC in drug resistance assay), K. pneumoniae ATCC 700603, day 10", "value": 1, "unit": "µg/mL"}, {"measurement": "MIC", "setting": "ATCC700603, 264 h, read-out: Concentration (MIC in drug resistance assay), K. pneumoniae ATCC 700603, day 11", "value": 2, "unit": "µg/mL"}, {"measurement": "MIC", "setting": "ATCC700603, 288 h, read-out: Concentration (MIC in drug resistance assay), K. pneumoniae ATCC 700603, day 12", "value": 2, "unit": "µg/mL"}, {"measurement": "MIC", "setting": "ATCC700603, 312 h, read-out: Concentration (MIC in drug resistance assay), K. pneumoniae ATCC 700603, day 13", "value": 2, "unit": "µg/mL"}, {"measurement": "MIC", "setting": "ATCC700603, 336 h, read-out: Concentration (MIC in drug resistance assay), K. pneumoniae ATCC 700603, day 14", "value": 4, "unit": "µg/mL"}, {"measurement": "MIC", "setting": "ATCC700603, 360 h, read-out: Concentration (MIC in drug resistance assay), K. pneumoniae ATCC 700603, day 15", "value": 4, "unit": "µg/mL"}, {"measurement": "MIC", "setting": "ATCC700603, 384 h, read-out: Concentration (MIC in drug resistance assay), K. pneumoniae ATCC 700603, day 16", "value": 4, "unit": "µg/mL"}, {"measurement": "MIC", "setting": "ATCC700603, 408 h, read-out: Concentration (MIC in drug resistance assay), K. pneumoniae ATCC 700603, day 17", "value": 4, "unit": "µg/mL"}, {"measurement": "MIC", "setting": "ATCC700603, 432 h, read-out: Concentration (MIC in drug resistance assay), K. pneumoniae ATCC 700603, day 18", "value": 4, "unit": "µg/mL"}, {"measurement": "MIC", "setting": "ATCC700603, 456 h, read-out: Concentration (MIC in drug resistance assay), K. pneumoniae ATCC 700603, day 19", "value": 4, "unit": "µg/mL"}, {"measurement": "MIC", "setting": "ATCC700603, 480 h, read-out: Concentration (MIC in drug resistance assay), K. pneumoniae ATCC 700603, day 20", "value": 8, "unit": "µg/mL"}, {"measurement": "MIC", "setting": "ATCC700603, 504 h, read-out: Concentration (MIC in drug resistance assay), K. pneumoniae ATCC 700603, day 21", "value": 4, "unit": "µg/mL"}, {"measurement": "MIC", "setting": "ATCC700603, 528 h, read-out: Concentration (MIC in drug resistance assay), K. pneumoniae ATCC 700603, day 22", "value": 4, "unit": "µg/mL"}, {"measurement": "MIC", "setting": "ATCC700603, 552 h, read-out: Concentration (MIC in drug resistance assay), K. pneumoniae ATCC 700603, day 23", "value": 4, "unit": "µg/mL"}, {"measurement": "MIC", "setting": "ATCC700603, 576 h, read-out: Concentration (MIC in drug resistance assay), K. pneumoniae ATCC 700603, day 24", "value": 4, "unit": "µg/mL"}, {"measurement": "MIC", "setting": "ATCC700603, 600 h, read-out: Concentration (MIC in drug resistance assay), K. pneumoniae ATCC 700603, day 25", "value": 4, "unit": "µg/mL"}, {"measurement": "MIC", "setting": "ATCC700603, 624 h, read-out: Concentration (MIC in drug resistance assay), K. pneumoniae ATCC 700603, day 26", "value": 8, "unit": "µg/mL"}, {"measurement": "MIC", "setting": "ATCC700603, 648 h, read-out: Concentration (MIC in drug resistance assay), K. pneumoniae ATCC 700603, day 27", "value": 8, "unit": "µg/mL"}, {"measurement": "MIC", "setting": "ATCC700603, 672 h, read-out: Concentration (MIC in drug resistance assay), K. pneumoniae ATCC 700603, day 28", "value": 8, "unit": "µg/mL"}, {"measurement": "MIC", "setting": "ATCC700603, 696 h, read-out: Concentration (MIC in drug resistance assay), K. pneumoniae ATCC 700603, day 29", "value": 8, "unit": "µg/mL"}, {"measurement": "MIC", "setting": "ATCC700603, read-out: Concentration (MIC in drug resistance assay), K. pneumoniae ATCC 700603, day 30", "value": 8, "unit": "µg/mL"}, {"measurement": "MIC", "setting": "ATCC700603, read-out: Concentration (MIC in drug resistance assay), K. pneumoniae ATCC 700603, day 31", "value": 8, "unit": "µg/mL"}, {"measurement": "MIC", "setting": "ATCC700603, read-out: Concentration (MIC in drug resistance assay), K. pneumoniae ATCC 700603, day 32", "value": 8, "unit": "µg/mL"}, {"measurement": "MIC", "setting": "ATCC700603, read-out: Concentration (MIC in drug resistance assay), K. pneumoniae ATCC 700603, day 33", "value": 8, "unit": "µg/mL"}, {"measurement": "MIC", "setting": "ATCC700603, read-out: Concentration (MIC in drug resistance assay), K. pneumoniae ATCC 700603, day 34", "value": 8, "unit": "µg/mL"}, {"measurement": "MIC", "setting": "ATCC700603, read-out: Concentration (MIC in drug resistance assay), K. pneumoniae ATCC 700603, day 35", "value": 16, "unit": "µg/mL"}, {"measurement": "MIC", "setting": "ATCC700603, read-out: Concentration (MIC in drug resistance assay), K. pneumoniae ATCC 700603, day 36", "value": 16, "unit": "µg/mL"}, {"measurement": "MIC", "setting": "ATCC700603, read-out: Concentration (MIC in drug resistance assay), K. pneumoniae ATCC 700603, day 37", "value": 16, "unit": "µg/mL"}, {"measurement": "MIC", "setting": "ATCC700603, read-out: Concentration (MIC in drug resistance assay), K. pneumoniae ATCC 700603, day 38", "value": 16, "unit": "µg/mL"}, {"measurement": "MIC", "setting": "ATCC700603, read-out: Concentration (MIC in drug resistance assay), K. pneumoniae ATCC 700603, day 39", "value": 16, "unit": "µg/mL"}, {"measurement": "MIC", "setting": "ATCC700603, read-out: Concentration (MIC in drug resistance assay), K. pneumoniae ATCC 700603, day 40", "value": 16, "unit": "µg/mL"}, {"measurement": "increase in MIC after 40 passages", "setting": "serial passage at sub-MIC", "value": 64, "unit": "fold"}]}]}
